The target of one test is HPV E6 protein (Human papillomavirus type 16, UniProt P03126). Put plainly: In vitro p53 degradation assay (E6 and p53 made in rabbit reticulocyte lysate).
Another test concerns the target E6 (Human papillomavirus type 16, UniProt P03126). In words: E6 inhibition (IC50, assay not specified). Format: biochemical. The source says: In some embodiments, the interaction of a compound described herein with E6 protein can be assayed in vitro, using routine techniques. In some in vitro assays, the ability of a compound described herein to inhibit the binding of E6 protein to an E6 binding protein can be tested. For example, the E6 protein can be labeled, e.g., radiolabeled, mixed with a compound described herein, and the binding of E6 protein to a binding protein, e.g., E6BP or E6AP, can be determined. Binding efficiency can be calculated as percent input bound minus background. Other in vitro assays can involve indirect measurements of the ability of a compound described herein to inhibit the binding of E6 protein to an E6 binding protein. For example, in vitro p53 degradation experiments can be performed, e.g., as described by Crook et al. (Cell, 67:547-556 (1991)). The IC50 for binding and p53 degradation for the compounds described herein can be tabulated using routine methods.
“IC50” as used herein is the concentration of a compound that produces half-maximal inhibition of protein activity, e.g., E6 activity.

Drawing on patent US7914769B2, “Compounds for treating human papillomavirus” (priority 2004, dated 2011), this text covers IC50 for one compound.

E6, sequence (P03126 whole entry): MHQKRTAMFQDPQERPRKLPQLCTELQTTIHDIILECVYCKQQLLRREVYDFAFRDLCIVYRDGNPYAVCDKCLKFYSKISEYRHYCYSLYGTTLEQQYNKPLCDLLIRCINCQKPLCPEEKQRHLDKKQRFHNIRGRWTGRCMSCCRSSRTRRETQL
HPV E6 protein, sequence (P03126 whole entry): as above

As to `CCN(C(=O)c1cc2ccccc2cc1O)c1ccccc1`, the IC50 (usually the concentration that inhibits the measured activity by half) on HPV E6 protein lay within 1000 to 2000 nM; against E6, 100 to 200 nM.
